For 1 compound, IC50 results are on record in PMC10558427, “A Theobromine Derivative with Anticancer Properties Targeting VEGFR‐2: Semisynthesis, in silico and in vitro Studies” (ChemistryOpen, 2023).

This experiment deals with T1, VEGFR‐2 (Homo sapiens, UniProt P35968).
T1 construct: gene KDR
Put plainly: in vitro VEGFR-2 inhibition assay (Human VEGFR ELISA kit). Format: biochemical. Background: An ELISA detects its analyte on a solid surface through an enzyme-linked reagent.

T1 sequence (P35968 20-1356): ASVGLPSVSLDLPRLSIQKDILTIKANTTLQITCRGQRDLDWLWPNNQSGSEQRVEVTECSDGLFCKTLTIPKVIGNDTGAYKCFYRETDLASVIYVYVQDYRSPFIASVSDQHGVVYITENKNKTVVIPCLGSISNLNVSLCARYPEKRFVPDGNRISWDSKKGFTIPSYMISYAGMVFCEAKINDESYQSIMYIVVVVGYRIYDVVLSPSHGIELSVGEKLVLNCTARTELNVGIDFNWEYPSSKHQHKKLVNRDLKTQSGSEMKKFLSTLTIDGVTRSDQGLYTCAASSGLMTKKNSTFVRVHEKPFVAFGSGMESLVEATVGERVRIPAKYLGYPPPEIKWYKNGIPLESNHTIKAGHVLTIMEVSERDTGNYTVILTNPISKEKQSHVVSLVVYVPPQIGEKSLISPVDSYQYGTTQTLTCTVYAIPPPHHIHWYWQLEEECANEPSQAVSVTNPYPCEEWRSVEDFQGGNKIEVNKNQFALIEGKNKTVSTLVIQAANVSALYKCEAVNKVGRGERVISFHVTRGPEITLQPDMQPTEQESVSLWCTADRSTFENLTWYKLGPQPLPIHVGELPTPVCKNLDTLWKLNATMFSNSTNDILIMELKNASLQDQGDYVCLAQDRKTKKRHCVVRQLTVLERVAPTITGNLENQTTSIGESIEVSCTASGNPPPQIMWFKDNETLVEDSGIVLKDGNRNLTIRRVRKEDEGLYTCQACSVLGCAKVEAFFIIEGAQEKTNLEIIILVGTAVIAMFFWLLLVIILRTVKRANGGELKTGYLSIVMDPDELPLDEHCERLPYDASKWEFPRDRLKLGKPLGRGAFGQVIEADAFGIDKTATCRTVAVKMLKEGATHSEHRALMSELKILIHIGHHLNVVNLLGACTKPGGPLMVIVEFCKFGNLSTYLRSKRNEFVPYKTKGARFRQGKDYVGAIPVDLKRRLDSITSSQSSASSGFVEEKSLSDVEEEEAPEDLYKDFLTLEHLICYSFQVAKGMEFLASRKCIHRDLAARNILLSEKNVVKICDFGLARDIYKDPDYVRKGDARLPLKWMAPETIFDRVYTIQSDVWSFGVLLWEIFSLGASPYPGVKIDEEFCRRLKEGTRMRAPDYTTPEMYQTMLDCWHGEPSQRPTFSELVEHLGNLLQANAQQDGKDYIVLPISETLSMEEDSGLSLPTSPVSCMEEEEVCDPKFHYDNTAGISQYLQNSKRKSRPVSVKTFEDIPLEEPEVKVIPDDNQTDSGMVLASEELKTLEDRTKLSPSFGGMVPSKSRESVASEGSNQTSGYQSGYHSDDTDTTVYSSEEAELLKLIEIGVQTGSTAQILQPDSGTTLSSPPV

Broadly, the IC50 is the concentration at which inhibition is half-maximal. The low end stands for greater potency in that assay, the high end for weaker potency in that assay. Consider `Cn1cnc2c1c(=O)n(CC(=O)Nc1ccc(C(=O)Nc3ccc(F)cc3)cc1)c(=O)n2C` [T-1-AFPB, 4‐(2‐(3,7‐Dimethyl‐2,6‐dioxo‐2,3,6,7‐tetrahydro‐1H‐purin‐1‐yl)acetamido)‐N‐(4‐fluorophenyl)benzamide], for which half-maximal inhibition (IC50) was put at 69 ± 3 nM.
